Assays:
HIV-1 strand HXB2 = assay: HIV-1 infection inhibition, MAGI assay; assay type: cell-based; conditions: for effect on HIV-1 infection (in words): MAGI assay, cultured cells, μM range
Procedure: Hela cells were obtained from ATCC, (Manassas, Va., USA) and then grown in 75 cm2 flasks with approximately 0.5×10^6 cells/flask at 37° C. in 5% CO2 atmosphere and at a relative humidity of 95%. The culture growth medium consisted of Dulbecco's Modified Eagle Medium (DMEM) supplemented with 10% heat-inactivated fetal bovine serum (FBS), 1% nonessential amino acids. The medium was replaced every other day. Titration of HIV-1 strand HXB2 in the absence or presence of the inhibitor was carried out by the multinuclear activation of a galactosidase indicator (MAGI) assay, similarly to the procedure described by Kimpton and […] (Virol. 66, 2232, 1992). Briefly, HeLa-CD4+beta-gal cells were transferred into 96-well plates at 15×10^3 cells per well. On the following day, the cells were infected with 50 μl of serially diluted virus in the presence of […] of DEAE-dextran (Pharmacia, Sweden). Two days post-infection, cultured cells were fixed with 1% formaldehyde and 0.2% glutaraldehyde in PBS. Following intensive wash with PBS, cells were stained with a solution of 4 mM potassium ferrocyanide, 4 mM potassium ferricyanide, 2 mM MgCl2 and 0.4 mg/ml of X-Gal (Ornat, Israel). Blue cells were counted under a light microscope. According to a slightly different procedure, the assay consisted of CD4 expressing Hela P4 cells containing the β-galactosidase reporter gene placed downstream […]. the HIV-LTR promotor. These cells were seeded 24 hours prior to viral infection at a density of 5×10^5 […] in 24 well culture plates (TPP model by Beyneix). 50 μL of virus solution prepared from CEM infected cells' supernatant, were incubated for 1 hour with the assayed peptides at the required concentrations, at 4° C. 10 μg of anti CD4 monoclonal antibodies 13B8.2 or […] were used as control. After incubation the virus solution was diluted to a total volume of 1 ml and was added to the Hela P4 cells. The cells were incubated at these conditions for 3 days after which their infection rate was assayed according to the β-galactosidase activity in the cells extract. The cells were washed well, harvested and disintegrated in a buffer containing 60 mM Na2HPO4, 40 mM NaH2PO4, 10 mM KCl, 1 mM MgSO4, 50 mM β-mercaptoethanol, 2.5 mM EDTA, 0.125% NP40, 0.125% triton, 20% glycerol, 0.2 mM PMSF and 100 U/ml approtinin. The cells extract was cleaned by centrifuge at 4° C. for 15 min at 13,000 rpm. β-galactosidase activity was determined by incubation of 150 μL of total cell extract at 37° C. for 2 hours in the presence of 6 mM ONPG (O-Nitrophenyl-β-D-galactopyranoside) in a buffer containing 80 mM Na2HPO4, 1 mM β-mercaptoethanol and 10 m MMgCl2, followed by absorption measurement at 410 nm. The β-galactosidase activity was normalized according to the total protein quantity in the assay.

[1] = system: pseudo typed viruses that express VSV-gp instead of gp-120; assay type: cell-based
[2] = Permeability ex-vivo, Ussing side by side diffusion chamber; assay type: in vitro ADME, Wistar rats; conditions: Ussing model
[3] = system: intestinal brush border enzymes; assay: Brush border membrane vesicles (BBMV) stability; assay type: in vitro ADME, Wistar rats; conditions: incubation in BBMVs at 37° C.
Procedure: Brush border membrane vesicles (BBMVs) were prepared from combined duodenum, jejunum, and upper ileum by a Ca^+2 precipitation method ([…]., 1997., Biochim Biophys Acta 1323, 45-56, […] et al. 2003., Biochem Biophys Res Commun 301, 8-12). The intestines of 5 male Wistar rats, 200-250 gr, were rinsed with ice cold 0.9% NaCl and freed of mucus; the mucosa was scraped off the luminal surface with glass slides and put immediately into buffer containing […] and 10 mM Tris-HCl (pH 7.5, 4° C.) and then homogenated (Polytron PT 1200, Kinematica AG, Switzerland). CaCl2 was added to a final concentration of 10 mM. The homogenate was left shaking for 30 min at 4° C. and then centrifuged at 10,000 g for 10 min. The supernatant was then centrifuged at 48,000 g for 30 min and an additional two purification steps were undertaken by suspending the pellet in 300 mM mannitol and 10 mM Hepes/Tris (pH 7.5) and centrifuging at […]. Purification of brush border membranes was assayed using the brush border membrane enzyme markers gamma-glutamyl transpeptidase (GGT), leucine amino peptidase (LAP) and alkaline phosphatase. During the course of these studies, enrichment in brush border membrane enzymes varied between 13- and 18-fold. The enzymatic reaction was performed as previously reported (Ovadia et al., 2009, Bioorg Med Chem 18, 580-589). […]

human liver microsomes = assay type: in vitro ADME
Procedure: The oxidative metabolism was evaluated in pooled liver microsomes of rats and humans with or without 3 μM of ketoconazole (CYP3A4 inhibitor) (Yang et al., 2005, Biopharm Drug Dispos 26, 387-402). The microsomes were purchased from BD Biosciences (Woburn, Mass.). […] The incubation mixture (3 ml) was prepared in triplicate for each species in a 0.1 m potassium phosphate buffer (pH 7.4) containing 1 μM of substrate, 0.5 μM CYP enzymes, 1.8 mM glucose-6-phosphate and 0.4 units/ml glucose-6-phosphate dehydrogenase. After a 5 min preincubation at 37° C., the reaction was initiated by adding β-NADPH (0.15 mM final concentration). Aliquots of 0.25 ml were taken at 0, 15 and 30 min and placed into 3 volumes of icecold acetonitrile (containing an internal standard) to terminate the reaction. The samples were vortexed and centrifuged at 10000 RPM for 8 min to collect supernatant for sample analysis.

[4] = Pharmacokinetics of oral CG-1 with or without ritonavir
Procedure: The pharmacokinetic profile of CG-1 was studied following intravenous (IV) and per-os (PO) administration to rats. Studies were performed in conscious Wistar male rats. An indwelling cannula was implanted into the left jugular vein 24 hours before the pharmacokinetic experiment to allow full recovery of the animals from the surgical procedure. Animals (n=5) received an intravenous (IV) bolus dose of 1 mg/kg of CG-1 or 10 mg/kg by oral gavage (n=5), CG-1 was dissolved in water. […] CG-1 administration. Plasma was separated by centrifugation (4000 g, 5 min, 4° C.) and stored at −70° C. pending analysis. A non-compartmental pharmacokinetic approach was used to compare pharmacokinetic profiles obtained following different modes of administration and to calculate bioavailability values. All calculations were performed utilizing WinNonlin® 5.0.1 software (Pharsight Corporation, Mountain View, Calif., USA).
The pharmacokinetic tests were repeated as above with the addition of ritonavir to the oral administration of CG-1. The study included three groups; the first group received 10 mg/kg of CG-1 in aqueous solution, the second one received an emulsion of 10 mg/kg of CG-1 and 10 mg/kg of ritonavir and the third group received CG-1 in the same emulsion without ritonavir.

[5] = Pharmacokinetic profile of CG-1 following IV and PO administration
Procedure: Rats were kept in a light-controlled room (light from 7:00 to 19:00) and were maintained on laboratory chow and water ad libitum.
The pharmacokinetic profile of CG-1 was studied following intravenous (IV) and per-os (PO) administration to rats. Studies were performed in conscious Wistar male rats. An indwelling cannula was implanted into the left jugular vein 24 hours before the pharmacokinetic experiment to allow full recovery of the animals from the surgical procedure. Animals (n=5) received an intravenous (IV) bolus dose of 1 mg/kg of CG-1 or 10 mg/kg by oral gavage (n=5), CG-1 was dissolved in water. […] Plasma was separated by centrifugation (4000 g, 5 min, 4° C.) and stored at −70° C. pending analysis. A non-compartmental pharmacokinetic approach was used to compare pharmacokinetic profiles obtained following different modes of administration and to calculate bioavailability values. All calculations were performed utilizing WinNonlin® 5.0.1 software (Pharsight Corporation, Mountain View, Calif., USA).
Non-compartmental pharmacokinetic analysis was performed using WinNonlin software, standard.

[6] = PO 10 mg/kg with RTV 10 mg/kg (emulsion)

**Q.** With `N=C(N)NCCCC1NC(=O)CCCCCC(=O)NC(Cc2ccccc2)CN(CC(N)=O)C1=O` (centres unmarked) [CG-1] as the compound, how does the “effect on HIV-1 infection (in words)” value (HIV-1 strand HXB2) read?
**A.** The value was “low μM activity”.

**Q.** What about the “inhibition of viral infection” value (HIV-1 strand HXB2; low μM range) of the same compound?
**A.** Its value is > 80%.

**Q.** What about the “infection inhibition of VSV-gp pseudo typed viruses” value [1] of the same compound?
**A.** The value was “did not have any effect”.

**Q.** What about the “permeability coefficient (Papp) ex-vivo compared with the other analogs” value [2] of the same compound?
**A.** The value was “significantly higher than the other analogs”.

**Q.** And the “transport in the distal regions” value ([2]; distal regions (ileum, colon))?
**A.** The value was “significantly lower”.

**Q.** And the “transport in the jejunum” value ([2]; jejunum)?
**A.** Its value is “significantly higher”.

**Q.** And the “stability to enzymatic degradation in BBMVs” value [3]?
**A.** Its value is “metabolically stable and is not degraded”.

**Q.** What about the “oxidative metabolism in liver microsomes” value (human liver microsomes) of the same compound?
**A.** Its value is “partially metabolized”.

**Q.** And the “microsomal stability with ketoconazole” value (human liver microsomes; human, microsomes)?
**A.** Its value is “significantly improved its stability”.

**Q.** What about the Oral bioavailability [4, 6] of the same compound?
**A.** Its Oral bioavailability is 21±3%.

**Q.** What about the T1/2 [4, 6] of the same compound?
**A.** The T1/2 was 93 ± 8 min.

**Q.** And the Tmax [4, 6]?
**A.** The Tmax was 18 ± 2 min.

**Q.** And the Oral bioavailability ([4]; PO 10 mg/kg, without ritonavir)?
**A.** Its Oral bioavailability is 7.3±1.6%.

**Q.** And the T1/2 ([4]; PO 10 mg/kg, without ritonavir)?
**A.** The T1/2 was 73 ± 6 min.

**Q.** What about the Tmax ([4]; PO 10 mg/kg, without ritonavir) of the same compound?
**A.** The Tmax was 18 ± 1.5 min.

**Q.** And the “Cmax increase when ritonavir was added” value ([4]; with vs without ritonavir)?
**A.** Its value is 3 fold.

**Q.** What about the Cmax ([5]; IV bolus, 1 mg/kg) of the same compound?
**A.** Its Cmax is 102 ± 19 ng/mL.

**Q.** What about the Tmax ([5]; IV bolus, 1 mg/kg) of the same compound?
**A.** Its Tmax is 5 min.

**Q.** And the Oral bioavailability ([5]; PO 10 mg/kg vs IV 1 mg/kg)?
**A.** The Oral bioavailability was ~10%.

**Q.** And the AUC ([5]; PO, 10 mg/kg oral gavage)?
**A.** Its AUC is 21770 ± 63 ng·min/mL.

**Q.** What about the Cmax ([5]; PO, 10 mg/kg oral gavage) of the same compound?
**A.** The Cmax was 866 ± 76 ng/mL.

**Q.** And the Tmax ([5]; PO, 10 mg/kg oral gavage)?
**A.** The Tmax was 18 min.

**Q.** What about the CI ([5]; printed in the PO row) of the same compound?
**A.** The CI was 14.53 ± 0.33 mL/min/kg.

**Q.** What about the Vss ([5]; printed in the PO row) of the same compound?
**A.** Its Vss is 0.6 L/kg.

**Q.** Which “effect on HIV-1 infection (in words)” value (HIV-1 strand HXB2) does the source give for `N=C(N)NCCCC1CN(CC(N)=O)C(=O)C(Cc2ccccc2)NC(=O)CCCCCC(=O)N1` (centres unmarked) [SC-1] here?
**A.** The value was “weak inhibitory effect”.

**Q.** Which “effect on HIV-1 infection (in words)” value (HIV-1 strand HXB2) does the source give for `N=C(N)NCCCC1NC(=O)CCCCCC(=O)NC(Cc2ccc(O)cc2)CN(CC(N)=O)C1=O` (centres unmarked) [MC-1] here?
**A.** The value was “did not reduce the infectivity”.

From US20120270774A1, “MACROCYCLIC COMPOUNDS, COMPOSITIONS COMPRISING THEM AND METHODS FOR PREVENTING OR TREATING HIV INFECTION” (Yissum Research Development Company of the Hebrew …, priority 2009, published 2012)
